In PMC6698915 (Cancer chemotherapy and pharmacology, 2015):

Assays:
[1] = test system: patients with advanced solid tumors; experiment: Phase Ib 3 + 3 dose escalation: DLT, MTD and recommended phase II dose; format: in vivo, human
[2] = test system: patients with advanced solid tumors; experiment: Adverse events; format: in vivo, human; details: Group 1 (n = 16 subjects), with carboplatin + paclitaxel q21 days

Nc1cc(C(F)(F)F)c(-c2cc(N3CCOCC3)nc(N3CCOCC3)n2)cn1 [buparlisib]
DLTs ([1]; Group 1, DL2 buparlisib 80 mg/day, three patients): no DLTs
DLTs ([1]; Group 1, DL3 buparlisib 100 mg/day, six evaluable subjects): no DLTs
DLT description ([1]; Group 1, dose level 1, 50 mg/day, NSCLC, 50 F): Grade 3 alkaline phosphatase elevation
MTD for buparlisib ([1]; Group 1: carboplatin AUC 5 + paclitaxel 175 mg/m^2 day 1, 21-day cycle, pegfilgrastim): 100 mg/day
phase II recommended dose of buparlisib ([1]; Group 1 regimen): 100 mg/day
DLTs ([1]; Group 2, DL1 buparlisib 50 mg/day, three patients): no DLTs
DLTs ([1]; Group 2, DL2 buparlisib 80 mg/day, first three patients): no DLTs
subjects who completed cycle 1 without DLT ([1]; Group 2, DL2 buparlisib 80 mg/day, six enrolled): five of six
DLT description ([1]; Group 2, dose level 3, 100 mg/day, NPC, 50 M): Grade 3 uncomplicated neutropenia >7 days
DLT description ([1]; Group 2, dose level 3, 100 mg/day, thyroid cancer, 61 F): Grade 3 uncomplicated neutropenia with grade 2 thrombocytopenia >7 days
MTD for buparlisib ([1]; Group 2: carboplatin AUC 5 day 1 + paclitaxel 80 mg/m^2 days 1, 8, 15, 28-day cycle, no growth factor): 80 mg/day
phase II recommended dose of buparlisib ([1]; Group 2 regimen): 80 mg/day
ALT and/or AST elevation, any grade [2]: 9 (56) n (%)
ALT and/or AST elevation, ≥Grade 3 [2]: 2 (13) n (%)
Alkaline phosphatase, increased, any grade [2]: 14 (88) n (%)
Alkaline phosphatase, increased, ≥Grade 3 [2]: 2 (13) n (%)
Alopecia, any grade [2]: 14 (88) n (%)
Anemia, any grade [2]: 13 (81) n (%)
Anemia, ≥Grade 3 [2]: 2 (13) n (%)
Anorexia, any grade [2]: 13 (81) n (%)
Anorexia, ≥Grade 3 [2]: 1 (6) n (%)
Anxiety, any grade [2]: 6 (38) n (%)
Anxiety, ≥Grade 3 [2]: 0 n (%)
Arthralgia, any grade [2]: 13 (81) n (%)
Arthralgia, ≥Grade 3 [2]: 1 (6) n (%)
Constipation, any grade [2]: 11 (69) n (%)
Constipation, ≥Grade 3 [2]: 0 n (%)
Cough, any grade [2]: 9 (56) n (%)
Cough, ≥Grade 3 [2]: 0 n (%)
Depressed mood, any grade [2]: 6 (38) n (%)
Depressed mood, ≥Grade 3 [2]: 1 (6) n (%)
Diarrhea, any grade [2]: 14 (88) n (%)
Diarrhea, ≥Grade 3 [2]: 1 (6) n (%)
Dizziness, any grade [2]: 10 (63) n (%)
Dizziness, ≥Grade 3 [2]: 0 n (%)
Dyspnea, any grade [2]: 11 (69) n (%)
Dyspnea, ≥Grade 3 [2]: 0 n (%)
Fatigue, any grade [2]: 14 (88) n (%)
Fatigue, ≥Grade 3 [2]: 1 (6) n (%)
Hypercholesterolemia, any grade [2]: 7 (44) n (%)
Hypercholesterolemia, ≥Grade 3 [2]: 0 n (%)
Hyperglycemia, any grade [2]: 15 (94) n (%)
Hyperglycemia, ≥Grade 3 [2]: 2 (13) n (%)
Hypertension, any grade [2]: 6 (38) n (%)
Hypertension, ≥Grade 3 [2]: 0 n (%)
Hypertriglyceridemia, any grade [2]: 7 (44) n (%)
Hypertriglyceridemia, ≥Grade 3 [2]: 0 n (%)
Hypoalbuminemia, any grade [2]: 14 (88) n (%)
Hypoalbuminemia, ≥Grade 3 [2]: 0 n (%)
Hypocalcemia, any grade [2]: 6 (38) n (%)
Hypocalcemia, ≥Grade 3 [2]: 1 (6) n (%)
Hypomagnesemia, any grade [2]: 10 (63) n (%)
Hypomagnesemia, ≥Grade 3 [2]: 0 n (%)
Hyponatremia, any grade [2]: 8 (50) n (%)
Hyponatremia, ≥Grade 3 [2]: 3 (19) n (%)
Hypophosphatemia, any grade [2]: 2 (13) n (%)
Hypophosphatemia, ≥Grade 3 [2]: 2 (13) n (%)
INR, increased, any grade [2]: 6 (38) n (%)
INR, increased, ≥Grade 3 [2]: 0 n (%)
Leukopenia, any grade [2]: 12 (75) n (%)
Leukopenia, ≥Grade 3 [2]: 2 (13) n (%)
Lymphopenia, any grade [2]: 12 (75) n (%)
Lymphopenia, ≥Grade 3 [2]: 12 (75) n (%)
Mucositis, oral, any grade [2]: 6 (38) n (%)
Mucositis, oral, ≥Grade 3 [2]: 0 n (%)
Myalgia, any grade [2]: 11 (69) n (%)
Myalgia, ≥Grade 3 [2]: 1 n (%)
Nausea, any grade [2]: 12 (75) n (%)
Nausea, ≥Grade 3 [2]: 0 n (%)
Neuropathy, sensory, any grade [2]: 7 (44) n (%)
Neuropathy, sensory, ≥Grade 3 [2]: 1 (6) n (%)
Neutropenia, any grade [2]: 4 (25) n (%)
Neutropenia, ≥Grade 3 [2]: 2 (13) n (%)
Rash, skin toxicity, any grade [2]: 13 (81) n (%)
Rash, skin toxicity, ≥Grade 3 [2]: 0 n (%)
Thrombocytopenia, any grade [2]: 13 (81) n (%)
Thrombocytopenia, ≥Grade 3 [2]: 3 (19) n (%)
